Results taken from patent US11040108B2, “Amino acid- and peptide-steroid conjugates and use thereof” (BRANDEIS UNIVERSITY, priority 2016, dated 2021).
Converted amounts (≈) assume the structure as drawn. “And” between values parts separate entries of the source, which are not always exact repeats. Equal entries are not always repeated. Where two headings read alike, the source gives them in different places.

Legend:
[1] = tested on: A2780cis cells; assay: MTT assay, cytotoxicity against A2780cis; type: cell-based, human
Procedure: (§1) HeLa, Saos-2, HS-5, HepG2, T98G, and A2780 cells were purchased from American-type Culture Collection (ATCC, USA). A2780cis cell was purchased from Sigma. HeLa cells, HepG-2 cells, and T98G cells were cultured in MEM Medium supplemented with 10% v/v fetal bovine serum, 100 U/mL penicillin, and 100 μg/mL streptomycin. Saos-2 cells were cultured in McCoy's 5a Medium (for Saos-2) supplemented with 15% v/v fetal bovine serum, 100 U/mL penicillin, and 100 μg/mL streptomycin. HS-5 cells were cultured in Dulbecco's Modified Eagle's medium (DMEM) supplemented with 10% v fetal bovine serum (FBS), 100 U/mL penicillin, and 100 μg/mL streptomycin. A2780cis cells were cultured in RPMI 1640 Medium supplemented with 10% v/v fetal bovine serum, 100 U/mL penicillin, and 100 μg/mL streptomycin (cisplatin only necessary every 2-3 passages). All cells were maintained at 37° C. in a humidified atmosphere of 5% CO2.
(§2) An MTT assay was used to test the cytotoxicity. All different cell lines were seeded in 96-well plates at 1×10^5 cells/well for 24 hours followed by removal of the culture medium and subsequent addition of culture medium containing different concentrations of the precursors. At designated time (24/48/72 hours), 10 μL MTT solution (5 mg/mL) was added to each well and incubated at 37° C. for another 4 hours, and then 100 μL of SDS-HCl solution was added to stop the reduction reaction and dissolve the purple formazan. The absorbance of each well at 595 nm was measured by a multimode microplate reader. The cytotoxicity assay was performed three times and the average value of the three measurements was taken.
The activity of conjugate 1a against a platinum-resistant, ovarian cancer cell line (A2780cis) (Behrens et al., “Characterization of a Cis-Diamminedichloroplatinum(Ii)-Resistant Human Ovarian Cancer Cell Line and its Use in Evaluation of Platinum Analogues,” Cancer Res. 47:414 (1987); Masuda et al., “Increased DNA Repair as a Mechanism of Acquired Resistance to Cis-Diamminedichloroplatinum (II) in Human Ovarian Cancer Cell Lines,” Cancer Res. 48:5713 (1988), which are hereby incorporated by reference in their entirety) was first examined. To assess the efficacy of conjugate 1a, the assay was carried out in parallel using the known, clinically used cytotoxic agent, cisplatin.

[2] = tested on: Saos-2 osteosarcoma cells; assay: MTT assay, cell viability of Saos-2; type: cell-based; conditions: Homo sapiens, read-out: IC50 against Saos-2
Procedure: as §1
An MTT assay was used to test the cytotoxicity. All different cell lines were seeded in 96-well plates at 1×10^5 cells/well for 24 hours followed by removal of the culture medium and subsequent addition of culture medium containing different concentrations of the precursors. […] The absorbance of each well at 595 nm was measured by a multimode microplate reader. […]

[3] = tested on: HS-5 cell line (human bone marrow stroma cell line); assay: MTT assay, cell viability of HS-5; type: cell-based; conditions: for IC50: Homo sapiens, HS5, read-out: IC50 against HS-5
Procedure: as §1, §2
To verify the selectivity of 1a against cancer cells, the HS-5 cell line (human bone marrow stroma cell line) was used; HS-5 hardly overexpresses ALP on cell surface. […] To further confirm that ALP on cell surface (i.e., as an ectophosphatase) contributed to the inhibitory activity of 1a, A2780cis were incubated with 1a and ALP (1 U/mL).
Additional cell viability assays were carried out using conjugates 1a and 1b, optionally with 3, against HepG2 human liver carcinoma cells, Saos-2 osteosarcoma cells, T98G glioblastoma cells, HS-5 (normal bone marrow stromal cells), A2780 ovarian cancer cells (parental line to A2780cis), and Kuramochi ovarian cancer cells. Conjugate 1a was particularly effective against ovarian and cervical cancer cells.

[4] = tested on: lipid rafts in A2780cis cells; assay: Laurdan staining of lipid rafts, A2780cis; type: cell-based, human; conditions: 1a 12.5 μM, 12 hours, 10 μM laurdan
Text: Considering that cholesterol is the basic component of lipid rafts, dynamic assemblies in cell membrane (Simons et al., “Functional Rafts in Cell Membranes,” Nature 387:569 (1997), which is hereby incorporated by reference in its entirety), laurdan, a commonly used probe for the polarity membrane (Parasassi et al., “Quantitation of Lipid Phases in Phospholipid Vesicles by the Generalized Polarization of Laurdan Fluorescence,” Biophys. J. 60:179 (1991), which is hereby incorporated by reference in its entirety), was used to examine the changes of lipid rafts upon the EISA of […]. Without treatment of 1a, the fluorescence of laurdan dispersed relatively evenly in the whole cell membrane (FIG. 8C).

[5] = tested on: lipid rafts in HeLa cell; assay: Laurdan staining of lipid rafts, HeLa; type: cell-based, human; conditions: 1a 25 μM, 12 hours
[6] = tested on: ER stress markers and ROS in A2780cis and HeLa cells; assay: Western blot of ER stress markers and CLSM detection of ROS; type: cell-based, human; conditions: 1a 12.5 μM, 12 hours for ROS
Procedure: Further exploration of the mode of action of 1a against A2780cis and HeLa cells was carried out via Western blot for the following ER stress markers: CHOP, Bip, PDI, IRE1α, Calnexin, Erol-Lα, PERK, and β-actin; or p-SAPK/JNK. Western blot was carried out via gel electrophoresis at […] for 1.5 hrs, and then transferring the protein on the gel to PVDF membranes for overnight at […] (4° C.). After that, the membrane was incubated with primary antibodies (obtained from Cell Signaling Technology) overnight at 4° C. The membrane was then incubated with secondary antibodies for 1 h at room temperature. This was followed by the reaction with ECL solutions for 10 minutes, and analysis of the results by autoradiography. Generation of ROS was detected in CLSM images via DHE emissions in exposed cells. CLSM imaging was carried out at the excitation of 543 nm and DHE emission was detected at the wavelength at 575 nm to 625 nm; or detection of anti-phospho-SRC and anti-phospho-Akt.

[7] = tested on: A2780cis cell lines; assay: Combination of 1a with other anti-cancer agents; type: cell-based, human; conditions: mixture of 1a with TIC10, Apo2L/TRAIL or doxorubicin
Procedure: In addition, 1a causes down regulation of cell survival proteins, Akt (Alexander, “Inhibiting the Akt Pathway in Cancer Treatment,” Pharmacy & Therapeutics 36(4): 225-227 (2011), which is hereby incorporated by reference in its entirety) and Src (Irby et al., “Role of Src Expression and Activation in Human Cancer,” Oncogene 19(49):5636-5642 (2000), which is hereby incorporated by reference in its entirety). Treatment of A2780cis cell lines with 1a (12.5 μM) for 24 hours downregulates expression of Src (FIGS. 13A-B) and Akt (FIGS. 13C-D). […] When used in combination with other anti-cancer agents, TIC10, Apo2L/TRAIL, and doxorubicin, a mixture of 1a with the individual anti-cancer agents was prepared, and then the cells were incubated with the mixture.

## CC(C)CCC[C@@H](C)C1CC[C@H]2[C@@H]3CC=C4CC(OC(=O)NC(Cc5ccc(OP(=O)(O)O)cc5)C(=O)O)CC[C@]4(C)[C@H]3CC[C@]12C (stereo partly drawn) [1a, Cholesterol-(phospho)D-Tyr]
[1]; 1a 12.5 μM + ALP 1 U/mL, 48 hour co-culture
  cell viability of A2780cis treated by 1a with exogenous ALP: partially rescued
[1]; 1a 12.5 μM + L-Phe or levamisole 1 mM, 48 hours
  cell viability of A2780cis treated by 1a with ALP inhibitors: higher cell viability
[1]; 1a 12.5 μM + zVAD-fmk 50 μM, PJ34 1 μM or Nec-1 45 μM, 48 hours
  cell viability of A2780cis treated by 1a with cell death signaling inhibitors: rescued the cells, but only partially
[1]; 72 hours
  IC50 against A2780cis: 6.3 µg/mL (≈ 9.35 µM)
[1]; Homo sapiens, A2780cis, 48 h, read-out: IC50 against A2780cis, 48 hours
  IC50: 11 µM and 7.7 µg/mL
[1]; incubated with 1a at 24 hours
  cells viable (cell viability test, A2780cis): more than 80%
[1]; read-out: IC50 against A2780cis, 72 hours
  IC50: 9 µM
[2]; 48 hours
  IC50: 41 µM
[2]; 72 hours
  IC50: 26 µM
[3]; 12.5 μM, 48 hours (FIG. 5A)
  cell viability / proliferation of HS-5: innocuous
[3]; 48 hours
  IC50: 32 µM
[3]; 72 hours
  IC50: 21 µM
[4]
  laurdan fluorescence in cell membrane (lipid rafts): increased inhomogeneity of the fluorescence
[5]
  number of green fluorescent puncta in cell membrane (laurdan, lipid rafts): increased considerably
[6]
  ER stress markers and ROS generation: induces cell apoptosis via ER stress and generation of ROS
[7]
  effect of combination treatments: synergistic effects
